Consider 11 compounds from PubChem BioAssay (NCI).

Test systems include EKVX NSCLC; M14 melanoma; CCRF-CEM leukemia; SNB-75 CNS; SK-MEL-28 melanoma; HOP-62 NSCLC; U251 CNS; RPMI-8226 leukemia; SK-MEL-5 melanoma; LOX IMVI melanoma.
What all share (experiment): NCI anticancer screen, dose series, 48 h

SMILES strings stand for the structures.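 Protocol summary: plate cells (96-well), add compound at 5 concentrations, incubate 48 h, interpolate endpoints linearly. At the GI50, growth is halved. TGI: total growth inhibition.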

As to `OC1OCC(COc2cc(Cl)c(Cl)cc2Cl)OC1O` (configuration not stated), the TGI with EKVX NSCLC was 81.9 µM; with M14 melanoma, greater than 100 µM; with CCRF-CEM leukemia it was 89.6 µM; in the test on SNB-75 CNS, greater than 100 µM; with SK-MEL-28 melanoma, greater than 100 µM; with HOP-62 NSCLC it was greater than 100 µM. Also, the TGI was greater than 100 µM in the test with U251 CNS, 77.9 µM in the test with RPMI-8226 leukemia and greater than 100 µM with SK-MEL-5 melanoma.
For `C[C@]12CC[C@H]3[C@@H](CC[C@]4(O)C[C@@H](O)CC[C@]34C=O)[C@@]1(O)CC[C@@H]2C1=CC(=O)OC1`, the TGI in the test on EKVX NSCLC is 1.3 µM; with LOX IMVI melanoma, 2.46 µM; in the test with M14 melanoma, 3.51 µM; in the test on CCRF-CEM leukemia, greater than 100 µM; in the test on SK-MEL-28 melanoma it was 4.84 µM; in the test with HOP-62 NSCLC, 0.533 µM. Also, the TGI in the test on U251 CNS turned out to be 2.9 µM; in the test with SK-MEL-5 melanoma, 1.16 µM.
For the compound `Cc1cc(OCc2ccc(C(F)(F)F)cc2)c2c(c1)C(=O)C=C(NCCN1CCCC1)C2=O`, the GI50 in the test with LOX IMVI melanoma is 1.92 µM; with M14 melanoma it was 1.88 µM; in the test with CCRF-CEM leukemia, 2.48 µM; in the test on SNB-75 CNS, 1.49 µM; in the test with SK-MEL-28 melanoma it was 1.69 µM; in the test on HOP-62 NSCLC it was 3.44 µM. The GI50 is 1.72 µM with U251 CNS, 1.87 µM in the test on RPMI-8226 leukemia and 1.53 µM in the test with SK-MEL-5 melanoma. The TGI in the test with LOX IMVI melanoma is 3.55 µM; with M14 melanoma, 3.56 µM; in the test on CCRF-CEM leukemia, 7.12 µM; with SNB-75 CNS, 2.89 µM; in the test on SK-MEL-28 melanoma it was 3.36 µM; in the test on HOP-62 NSCLC it was 13.2 µM. Moreover, the TGI in the test on U251 CNS is 3.45 µM; with RPMI-8226 leukemia, 4.36 µM; with SK-MEL-5 melanoma, 2.88 µM.
On to `CC(NNC(=S)N1CCN(c2ccccn2)CC1)c1nccc2ccccc12` (configuration not stated), for which the TGI was determined as 11.4 µM in the test with EKVX NSCLC; 11.2 µM in the test on LOX IMVI melanoma; 2.46 µM in the test on M14 melanoma; 1.02 µM in the test on CCRF-CEM leukemia; 18.9 µM in the test with SNB-75 CNS; 18.5 µM with SK-MEL-28 melanoma. For the same compound, the values for the TGI with HOP-62 NSCLC, with U251 CNS and in the test with SK-MEL-5 melanoma were 15.5 µM, 14.3 µM and 12.3 µM, respectively.
With `O=C1c2ccccc2C(=O)N1CC#CCO`, the TGI with EKVX NSCLC, in the test on M14 melanoma, with CCRF-CEM leukemia, in the test on SK-MEL-28 melanoma, in the test with HOP-62 NSCLC and with U251 CNS was greater than 100 µM throughout. In the test on SK-MEL-5 melanoma, this compound registered a TGI greater than 100 µM.
Regarding `CC(=O)C1=C(C)N(Cc2ccccc2)C2(O)C=CC(=O)C3=C(O)c4ccccc4C(=O)C312` (configuration not stated), the GI50 was 16.4 µM in the test on EKVX NSCLC; 1.97 µM in the test with LOX IMVI melanoma; 3.18 µM in the test on M14 melanoma; 4.88 µM in the test on SNB-75 CNS; 2.36 µM with SK-MEL-28 melanoma; 13.5 µM in the test with HOP-62 NSCLC. Also, the figures for the GI50 in the test on U251 CNS, with RPMI-8226 leukemia and in the test on SK-MEL-5 melanoma were 3.38 µM, 2.35 µM and 3.63 µM, respectively. Moreover, the TGI with EKVX NSCLC amounted to 33.8 µM; with LOX IMVI melanoma it was 4.39 µM; with M14 melanoma, 9.03 µM; with SNB-75 CNS, 25 µM; in the test with SK-MEL-28 melanoma it was 6.1 µM; in the test on HOP-62 NSCLC, 34.3 µM. Also, the figures for the TGI in the test with U251 CNS, with RPMI-8226 leukemia and in the test on SK-MEL-5 melanoma were 10.2 µM, 6.38 µM and 12.5 µM, respectively.
Regarding `CCN1CCN(c2ccc(NC(=O)Nc3nc4ccc(-c5ccccc5OC)cc4s3)cc2)CC1`, the GI50 is 1.51 µM with EKVX NSCLC; 1.7 µM in the test with LOX IMVI melanoma; 1.62 µM with M14 melanoma; 1.81 µM with CCRF-CEM leukemia; 1.49 µM in the test with SNB-75 CNS; 1.76 µM with SK-MEL-28 melanoma. The GI50 in the test with U251 CNS was 1.57 µM; in the test with RPMI-8226 leukemia, 2.06 µM; in the test on SK-MEL-5 melanoma, 1.73 µM. Besides, the TGI in the test with EKVX NSCLC was 3.12 µM; with LOX IMVI melanoma, 3.17 µM; in the test on M14 melanoma, 3.03 µM; with CCRF-CEM leukemia, 4.09 µM; in the test on SNB-75 CNS it was 2.86 µM; in the test with SK-MEL-28 melanoma, 3.26 µM. Besides, the results for the TGI with U251 CNS, in the test with RPMI-8226 leukemia and in the test on SK-MEL-5 melanoma were 2.94 µM, 4.6 µM and 3.12 µM, respectively.
For `CCCCCCC(=O)NC1=C(N2CC2)C(=O)C(NC(=O)CCCCCC)=C(N2CC2)C1=O`, the GI50 was 3.03 µM in the test with LOX IMVI melanoma; 2.25 µM in the test with M14 melanoma; 4.32 µM in the test on CCRF-CEM leukemia; 11.7 µM in the test with SNB-75 CNS; greater than 100 µM with SK-MEL-28 melanoma; 5.35 µM in the test on HOP-62 NSCLC. Also, the GI50 in the test with U251 CNS is 2.88 µM. For the same compound, the TGI with LOX IMVI melanoma is greater than 100 µM; in the test on M14 melanoma, greater than 100 µM; in the test on CCRF-CEM leukemia, greater than 100 µM; with SNB-75 CNS, 43.9 µM; in the test with SK-MEL-28 melanoma it was greater than 100 µM; in the test with HOP-62 NSCLC, greater than 100 µM. For the same compound, the TGI with U251 CNS is greater than 100 µM.
With `CCOC(=O)C1=C(Nc2ccc(OC)cc2)C(N)=NC1=N`, the GI50 in the test on LOX IMVI melanoma was 5.47 µM; in the test on CCRF-CEM leukemia, 3.24 µM; in the test with SNB-75 CNS, 3.03 µM; in the test with SK-MEL-28 melanoma, 6.89 µM; in the test with HOP-62 NSCLC, 6.23 µM; with U251 CNS, 3.81 µM. Besides, the GI50 in the test on SK-MEL-5 melanoma is 0.57 µM. For the same compound, the TGI in the test on LOX IMVI melanoma, with CCRF-CEM leukemia, with SNB-75 CNS, in the test with SK-MEL-28 melanoma, with HOP-62 NSCLC and in the test on U251 CNS was greater than 100 µM each time. For the same compound, the TGI in the test on SK-MEL-5 melanoma came out at 55.8 µM.
Take `O=C1CCC2(O)c3ccccc3C2Cc2ccccc21` (configuration not stated): the TGI in the test on EKVX NSCLC, in the test with LOX IMVI melanoma, in the test on CCRF-CEM leukemia, in the test on SNB-75 CNS, in the test with SK-MEL-28 melanoma and in the test on HOP-62 NSCLC was greater than 100 µM throughout. Further, the TGI in the test on U251 CNS and in the test with RPMI-8226 leukemia was greater than 100 µM in each case.
With `COc1ccc(N=NC2=C(O)CCC2=O)cc1`, the TGI in the test on EKVX NSCLC, with LOX IMVI melanoma, in the test on M14 melanoma, in the test on CCRF-CEM leukemia, in the test on SNB-75 CNS and with SK-MEL-28 melanoma was greater than 100 µM throughout. Also, the TGI in the test with HOP-62 NSCLC, in the test on U251 CNS and in the test with SK-MEL-5 melanoma was greater than 100 µM each time.
